Measured values from the NIST ThermoML archive (doi:10.1021/acs.jced.8b00590).

Details: Liquid; for vapor or sublimation pressure: Ebulliometric method (Recirculating still); for mass density / viscosity: 101.3 kPa; for mass density: Vibrating tube method; for viscosity: Falling or rolling sphere viscometry

Clc1ccccc1Cl [1,2-dichlorobenzene]
Details	vapor or sublimation pressure [kPa]
360.41 K	4.86
377.35 K	9.95
388.41 K	14.98
396.96 K	20.04
403.4 K	24.99
408.91 K	30
414.16 K	35.02
418.75 K	40.02
422.87 K	45.05
429.99 K	55.03
433.29 K	59.97
438.87 K	69.93
443.92 K	79.98
448.94 K	90.2
451.11 K	95.11
452.62 K	98.36

CCCCC#N [pentanenitrile]
Details	mass density [kg/m3]	vapor or sublimation pressure [kPa]	viscosity [mPa·s]
283.15 K	807.7	–	–
293.15 K	799.1	–	0.7191
303.15 K	790.4	–	–
313.15 K	781.7	–	0.5654
323.15 K	772.9	–	–
329.35 K	–	5	–
333.15 K	764.2	–	0.4567
344.89 K	–	9.9	–
345.13 K	–	10	–
362.77 K	–	20	–
374.08 K	–	30	–
386.22 K	–	45	–
395.4 K	–	60	–
407.76 K	–	86.4	–
411.12 K	–	95	–
412.96 K	–	100	–
